According to patent US11142533B2, “Macrocycles for use in treating disease” (TURNING POINT THERAPEUTICS, INC., priority 2019, dated 2021):
pIC50: −log10 of the molar value. ≈ marks a conversion by molar mass, not a printed value.

What was measured:
KM12 (TPM3-TRKA) = KM12 (TPM3-TRKA) (Homo sapiens, UniProt P04629); test: Cell proliferation assay (CellTiter-Glo)
KG-1 cell (OP2-FGFR1) = KG-1 cell (OP2-FGFR1) (Homo sapiens, UniProt P11362); test: Cell proliferation assay (CellTiter-Glo)
[1] = Mouse pharmacokinetic study; format: in vivo; conditions: single oral dose (dose level not given), plasma
Description: To prepare 1 L of the vehicle solution (0.5% CMC and 1.0% Tween 80), 10 g of Tween 80 was mixed with 985 mL of water into a 1 L bottle. The mixture was stirred until Tween 80 was completely dissolved. With continued stirring, 5 g of CMC was very slowly sprinkled into the solution. Stirring was continued until all CMC was dissolved, which might take several hr. The resulting vehicle solution was stored at 4° C.
The compound was suspended in the vehicle solution and the mice were orally administrated with a single dose of the compound at the selected dose level. The blood samples were collected according to the defined time table into tubes containing K2-EDTA, followed by gentle mixing to assure distribution of the anti-coagulant. Immediately after the blood sample was collected and mixed, it was placed on ice. The samples were then centrifuged at 4° C. for 10 minutes at 5,000 RPM. The plasma was harvested into pre-labeled tubes and stored at −80° C. until analyzed by LC-MS/MS.

[2] = Solubility test in phosphate buffer; format: physicochemical; conditions: aqueous buffer, thermodynamic from solid; phosphate buffer pH 7.4, room temperature
Description: Aliquot of 1.035 mL phosphate buffer (PB) (pH 7.4) was added into 2.07 mg of the test compound (for a 2 mg·mL^−1 upper limiting solubility determination) in a 1.5 mL tubes. The mixture was ultrasonicly treated for 10 min and rotated on rotator at room temperature for more than 8 hr. After rotation, the tube was ultrasonicly treated for 10 min and centrifuged at 13000 rpm for 15 min. 0.3 mL of the supernatant was transferred into a 0.6 mL tube and discarded after rotated for 5 min for rinsing, then about 0.6 mL of the residual supernatant was transferred into the rinsed tube and centrifuged again at 13000 rpm for 15 min. The supernatant after every centrifugation was appropriately diluted and transferred for LC-MS/MS analysis where a standard curve was constructed with 7 concentration levels (2, 4, 10, 20, 40, 100 and 200 μg mL^−1) and used for the quantitation of the analyte in PB.

[3] = Liver microsomal stability; format: in vitro ADME; conditions: pH 7.4, 1 μM compound, 0.5 mg/mL liver microsome protein
Description: The test compound stock solution was prepared by weighing 1.07 mg and dissolving in 0.261 mL of DMSO to achieve the concentration of 10 mM. Working solution of the test compound was prepared by diluting stock solution using DMSO to yield the concentration of 300 μM.
The assay was carried out in 96-well microtiter plates. In each well, the reaction mixture (25 μL) contained the test compound at the final concentration of 1 μM, 0.5 mg/mL liver microsome protein, and 1 mM NADPH in 100 mM potassium phosphate, pH 7.4 buffer with 3.3 mM MgCl2. The mixtures were incubated in duplicate at 37° C. for 0, 15, 30 or 60 minutes, and 150 μL of quench solution (acetonitrile with 0.1% formic acid) with internal standard (bucetin for positive ESI mode) was added into each well of reaction to terminate the reaction. The plates were then sealed and centrifuged at 4° C. for 15 minutes at 4000 rpm. The resulting supernatant was transferred to fresh plates for LC-MS/MS analysis of the test compounds. Verapamil was used as the positive control to validate the assay system.
All samples were analyzed with LC-MS/MS using an AB Sciex API 4000 instrument, coupled to a Shimadzu LC-20AD LC Pump system. Analytical samples were separated using a Waters Atlantis T3 dC18 reverse phase HPLC column (20 mm×2.1 mm) at a flow rate of 0.5 mL/min. The mobile phase consisted of 0.1% formic acid in water (solvent A) and 0.1% formic acid in acetonitrile (solvent B).
The extent of metabolism was calculated based on the disappearance of the test compound, compared to its initial concentration. The initial rates of clearance of test compounds were calculated using linear regression plot of semi-log % remaining of compounds versus time. The elimination rate constant (equals to negative slope) of the linear regression plot was then used to determine t112 and the intrinsic clearance (CLInt) using the following formula: k=−slope t1/2=0.693/k CLint=k/Cprotein
Where Cprotein (mg/mL) is the microsomal protein concentration in the incubation system.

[4] = female, mouse, liver microsomes

Chain of KM12 (TPM3-TRKA) (P04629 with tags, fused parts or gaps): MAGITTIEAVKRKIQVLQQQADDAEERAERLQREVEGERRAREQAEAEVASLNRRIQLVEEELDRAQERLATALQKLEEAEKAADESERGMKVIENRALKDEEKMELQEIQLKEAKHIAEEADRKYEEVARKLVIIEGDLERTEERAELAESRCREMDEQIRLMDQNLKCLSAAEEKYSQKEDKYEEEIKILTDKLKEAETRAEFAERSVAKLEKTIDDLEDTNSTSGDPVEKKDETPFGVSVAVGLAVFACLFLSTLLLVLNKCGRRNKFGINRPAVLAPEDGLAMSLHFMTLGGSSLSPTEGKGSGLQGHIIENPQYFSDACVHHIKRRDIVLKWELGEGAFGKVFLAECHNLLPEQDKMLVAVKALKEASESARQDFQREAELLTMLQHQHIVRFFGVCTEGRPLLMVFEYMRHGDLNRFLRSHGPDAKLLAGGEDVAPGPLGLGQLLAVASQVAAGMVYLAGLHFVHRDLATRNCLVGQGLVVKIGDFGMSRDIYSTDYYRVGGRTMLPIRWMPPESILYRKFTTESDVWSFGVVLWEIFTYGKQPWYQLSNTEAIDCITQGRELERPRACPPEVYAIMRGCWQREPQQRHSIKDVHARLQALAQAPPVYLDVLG
Chain of KG-1 cell (OP2-FGFR1) (P11362 456-822 limits assumed): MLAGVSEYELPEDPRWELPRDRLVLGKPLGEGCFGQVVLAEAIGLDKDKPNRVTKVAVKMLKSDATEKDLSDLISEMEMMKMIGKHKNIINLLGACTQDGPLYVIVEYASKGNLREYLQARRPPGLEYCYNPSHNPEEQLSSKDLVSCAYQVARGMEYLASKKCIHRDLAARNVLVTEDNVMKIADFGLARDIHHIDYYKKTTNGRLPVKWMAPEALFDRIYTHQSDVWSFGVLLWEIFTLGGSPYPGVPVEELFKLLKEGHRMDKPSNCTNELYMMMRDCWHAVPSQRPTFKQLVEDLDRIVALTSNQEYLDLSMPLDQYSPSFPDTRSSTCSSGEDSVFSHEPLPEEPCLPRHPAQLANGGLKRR

pIC50 (KM12 (TPM3-TRKA))	pIC50 (KG-1 cell (OP2-FGFR1))	AUC [1]	Cmax [1]	Tmax [1]	solubility [2]	microsomal CLint at 1 µM [3, 4]	microsomal CLint at 1 µM ([3]; female, rat, liver microsomes)	microsomal CLint at 1 µM ([3]; human, pooled liver microsomes)	Compound
> 9.70	7.12	–	–	–	–	–	–	–	O=C1NCCCOc2ccc(F)cc2CN2c3nc4c1cnn4cc3OC[C@H]2C(F)F [Compound 3, (16S)-16-(Difluoromethyl)-12-fluoro-5,6,7,8,16,17-hexahydro-4H,14H-1,19-(metheno)[1,4]oxazino[3,4-j]pyrazolo[4,3-g][1,5,9,11]benzoxatriazacyclotetradecin-4-one]
9.70	9.19	18700 ng·h/mL	2900 ng/mL	30 min	4.9 µg/mL (≈ 11.9 µM)	21 µL/min/mg	5.9 µL/min/mg	3.9 µL/min/mg	C[C@@H]1COc2cn3ncc4c3nc2N1Cc1cc(F)cnc1OCC(C)(C)NC4=O [Comp. Ex. 2, reference compound]
> 9.70	6.41	–	–	–	–	–	–	–	O=C1NC2(CCOc3ccc(F)cc3CN3c4nc5c1cnn5cc4OC[C@H]3C(F)F)CC2 [Compound 6, (16′S)-16′-(Difluoromethyl)-12′-fluoro-4′H,5′H,7′H,8′H,14′H,16′H,17′H-spiro[cyclopropane-1,6′-[1,19](metheno)[1,4]oxazino[3,4-j]pyrazolo[4,3-g][1,5,9,11]benzoxatriazacyclotetradecin]-4′-one]
–	7.22	–	–	–	–	–	–	–	O=C1NC2(CC2)COc2ccc(F)cc2CN2c3nc4c1cnn4cc3OC[C@H]2C(F)F [Compound 4, (4′S)-4′-(Difluoromethyl)-8′-fluoro-3′H,4′H,6′H,12′H,14′H,15′H-spiro[cyclopropane-1,13′-[18,1](metheno)[1,4]oxazino[3,4-i]pyrazolo[4,3-f][1,4,8,10]benzoxatriazacyclotridecin]-15′-one]
> 9.70	5.68	–	–	–	–	–	–	–	CC1(C)CCOc2ccc(F)cc2CN2c3nc4c(cnn4cc3OC[C@H]2C(F)F)C(=O)N1 [Compound 8, (16S)-16-(Difluoromethyl)-12-fluoro-6,6-dimethyl-5,6,7,8,16,17-hexahydro-4H,14H-1,19-(metheno)[1,4]oxazino[3,4-j]pyrazolo[4,3-g][1,5,9,11]benzoxatriazacyclotetradecin-4-one]
> 9.70	6.29	–	–	–	–	–	–	–	C[C@@H]1CCOc2ccc(F)cc2CN2c3nc4c(cnn4cc3OC[C@H]2C(F)F)C(=O)N1 [Compound 5, (6R,16S)-16-(Difluoromethyl)-12-fluoro-6-methyl-5,6,7,8,16,17-hexahydro-4H,14H-1,19-(metheno)[1,4]oxazino[3,4-j]pyrazolo[4,3-g][1,5,9,11]benzoxatriazacyclotetradecin-4-one]
> 9.70	7.65	12300 ng·h/mL	4190 ng/mL	30 min	7.9 µg/mL (≈ 19.8 µM)	22 µL/min/mg	10 µL/min/mg	2.6 µL/min/mg	C[C@@H]1COc2ncc(F)cc2CN2c3nc4c(cnn4cc3OC[C@H]2C)C(=O)N1 [Comp. Ex. 1, reference compound]
> 9.70	7.39	–	–	–	–	–	–	–	CC1(C)CNC(=O)c2cnn3cc4c(nc23)N(Cc2cc(F)ccc2OC1)[C@H](C(F)F)CO4 [Compound 7, (16S)-16-(Difluoromethyl)-12-fluoro-7,7-dimethyl-5,6,7,8,16,17-hexahydro-4H,14H-1,19-(metheno)[1,4]oxazino[3,4-j]pyrazolo[4,3-g][1,5,9,11]benzoxatriazacyclotetradecin-4-one]
